The source made the active and inactive calls. The rule behind the calls is not given here.
What was measured:
[1] = target: Integrin alpha-2 (Homo sapiens) (UniProt P17301); experiment: Inhibition of integrin alpha-2 binding to collagen 4 at 50 uM
[2] = target: Integrin alpha-1 (Homo sapiens) (UniProt P56199); experiment: Inhibition of integrin alpha-1 binding to collagen 1 at 50 uM
[3] = target: Integrin alpha-1 (Homo sapiens) (UniProt P56199); experiment: Inhibition of integrin alpha-1 binding to collagen 4 at 50 uM
Integrin alpha-2 = target: T1, Integrin alpha-2 (Homo sapiens, UniProt P17301); experiment: Inhibition of integrin alpha-2 domain binding to collagen 1 by Europium-labeled anti-GST assay
T1 sequence (P17301 whole entry): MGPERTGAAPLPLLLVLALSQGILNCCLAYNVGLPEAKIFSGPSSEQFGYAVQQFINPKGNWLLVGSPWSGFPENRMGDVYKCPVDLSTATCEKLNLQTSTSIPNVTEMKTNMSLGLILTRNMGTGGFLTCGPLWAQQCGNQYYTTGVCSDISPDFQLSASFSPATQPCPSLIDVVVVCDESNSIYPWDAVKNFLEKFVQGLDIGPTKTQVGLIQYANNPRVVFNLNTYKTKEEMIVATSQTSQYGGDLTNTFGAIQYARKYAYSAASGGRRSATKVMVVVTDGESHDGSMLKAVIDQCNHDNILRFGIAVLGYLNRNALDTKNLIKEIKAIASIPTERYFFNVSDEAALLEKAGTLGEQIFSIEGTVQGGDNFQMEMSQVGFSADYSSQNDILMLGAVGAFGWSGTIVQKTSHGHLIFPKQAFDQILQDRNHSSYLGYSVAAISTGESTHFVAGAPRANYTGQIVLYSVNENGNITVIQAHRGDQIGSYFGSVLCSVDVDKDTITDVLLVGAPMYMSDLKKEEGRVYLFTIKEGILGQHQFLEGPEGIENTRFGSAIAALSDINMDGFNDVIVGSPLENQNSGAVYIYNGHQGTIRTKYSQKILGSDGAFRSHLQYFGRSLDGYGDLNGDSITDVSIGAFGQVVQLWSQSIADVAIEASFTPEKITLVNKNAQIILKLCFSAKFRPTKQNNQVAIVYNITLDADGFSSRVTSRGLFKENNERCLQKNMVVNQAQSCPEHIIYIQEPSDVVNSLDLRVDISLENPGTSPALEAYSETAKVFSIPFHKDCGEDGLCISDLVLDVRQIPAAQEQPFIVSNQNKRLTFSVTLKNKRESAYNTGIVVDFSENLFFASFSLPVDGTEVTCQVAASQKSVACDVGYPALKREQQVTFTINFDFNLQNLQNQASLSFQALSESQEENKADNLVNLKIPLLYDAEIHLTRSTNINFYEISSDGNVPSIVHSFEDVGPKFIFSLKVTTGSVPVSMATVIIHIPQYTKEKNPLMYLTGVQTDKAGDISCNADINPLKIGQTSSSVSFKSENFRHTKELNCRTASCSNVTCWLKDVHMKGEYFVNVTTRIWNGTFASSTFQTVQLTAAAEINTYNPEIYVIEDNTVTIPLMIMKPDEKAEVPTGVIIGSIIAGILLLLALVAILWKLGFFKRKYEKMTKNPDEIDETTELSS

[4] = target: Integrin alpha-2 (Homo sapiens) (UniProt P17301); experiment: Inhibition of integrin alpha-2 domain binding to collagen 1 by Europium-labeled anti-GST assay relative to control; conditions: concentration not given here
CHO [5] = experiment: Inhibition of integrin alpha-2 expressing CHO cell adhesion to collagen 1 at 10 uM; format: functional; conditions: Cricetulus griseus
CHO [6] = experiment: Cytotoxicity against CHO cells at =< 200 uM; format: cell-based, Cricetulus griseus; conditions: chinese hamster
CHO [7] = experiment: Inhibition of integrin alpha2 Y285F beta-1 mutant binding to collagen 1 in CHO cells; format: cell-based; conditions: Homo sapiens
CHO [8] = experiment: Cytotoxicity against CHO cells at =< 50 uM; format: cell-based, Cricetulus griseus; conditions: chinese hamster
[9] = Inhibition of integrin alpha-2 E318W mutant binding to collagen 1 by Europium-labeled anti-GST assay; design: species or system Homo sapiens
[10] = Inhibition of integrin alpha-2 E318W mutant binding to collagen 4 by Europium-labeled anti-GST assay; design: species or system Homo sapiens
[11] = target: T2, Integrin alpha-11 (Homo sapiens) (UniProt Q9UKX5); experiment: Inhibition of integrin alpha-11 binding to collagen 1 at 50 uM
T2 sequence (whole entry): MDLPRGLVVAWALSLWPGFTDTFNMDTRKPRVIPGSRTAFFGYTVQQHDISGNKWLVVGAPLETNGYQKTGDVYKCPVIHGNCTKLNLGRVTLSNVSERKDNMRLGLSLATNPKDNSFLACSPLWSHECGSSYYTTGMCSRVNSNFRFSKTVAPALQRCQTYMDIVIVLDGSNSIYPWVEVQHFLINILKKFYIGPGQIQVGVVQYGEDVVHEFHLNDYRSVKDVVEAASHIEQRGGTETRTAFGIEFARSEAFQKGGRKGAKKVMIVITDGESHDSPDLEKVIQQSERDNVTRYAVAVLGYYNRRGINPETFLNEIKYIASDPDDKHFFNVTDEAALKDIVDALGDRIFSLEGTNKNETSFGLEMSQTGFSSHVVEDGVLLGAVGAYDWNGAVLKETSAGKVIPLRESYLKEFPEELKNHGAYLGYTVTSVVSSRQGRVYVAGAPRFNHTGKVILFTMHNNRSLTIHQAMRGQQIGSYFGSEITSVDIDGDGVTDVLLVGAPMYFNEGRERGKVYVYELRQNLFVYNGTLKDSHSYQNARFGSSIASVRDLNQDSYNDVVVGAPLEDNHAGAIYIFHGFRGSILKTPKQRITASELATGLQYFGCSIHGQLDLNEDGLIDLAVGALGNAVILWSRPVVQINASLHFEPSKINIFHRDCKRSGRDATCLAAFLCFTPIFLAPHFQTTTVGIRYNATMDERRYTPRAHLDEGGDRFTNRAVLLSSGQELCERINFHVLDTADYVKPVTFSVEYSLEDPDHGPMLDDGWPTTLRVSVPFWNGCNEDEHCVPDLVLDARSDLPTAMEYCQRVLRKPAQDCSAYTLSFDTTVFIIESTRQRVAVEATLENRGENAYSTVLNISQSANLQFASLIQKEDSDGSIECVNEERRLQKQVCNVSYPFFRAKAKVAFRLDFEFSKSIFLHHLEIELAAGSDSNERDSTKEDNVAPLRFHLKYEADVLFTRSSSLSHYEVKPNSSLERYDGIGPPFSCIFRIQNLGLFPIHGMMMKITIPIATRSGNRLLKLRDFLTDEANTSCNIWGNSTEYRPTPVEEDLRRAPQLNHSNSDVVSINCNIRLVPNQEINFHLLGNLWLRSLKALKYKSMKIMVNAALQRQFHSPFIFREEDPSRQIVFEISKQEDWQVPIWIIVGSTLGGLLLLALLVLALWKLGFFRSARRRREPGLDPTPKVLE

[12] = target: T3, Integrin alpha-10 (Homo sapiens) (UniProt O75578); experiment: Inhibition of integrin alpha-10 binding to collagen 1 at 50 uM
T3 sequence (whole entry): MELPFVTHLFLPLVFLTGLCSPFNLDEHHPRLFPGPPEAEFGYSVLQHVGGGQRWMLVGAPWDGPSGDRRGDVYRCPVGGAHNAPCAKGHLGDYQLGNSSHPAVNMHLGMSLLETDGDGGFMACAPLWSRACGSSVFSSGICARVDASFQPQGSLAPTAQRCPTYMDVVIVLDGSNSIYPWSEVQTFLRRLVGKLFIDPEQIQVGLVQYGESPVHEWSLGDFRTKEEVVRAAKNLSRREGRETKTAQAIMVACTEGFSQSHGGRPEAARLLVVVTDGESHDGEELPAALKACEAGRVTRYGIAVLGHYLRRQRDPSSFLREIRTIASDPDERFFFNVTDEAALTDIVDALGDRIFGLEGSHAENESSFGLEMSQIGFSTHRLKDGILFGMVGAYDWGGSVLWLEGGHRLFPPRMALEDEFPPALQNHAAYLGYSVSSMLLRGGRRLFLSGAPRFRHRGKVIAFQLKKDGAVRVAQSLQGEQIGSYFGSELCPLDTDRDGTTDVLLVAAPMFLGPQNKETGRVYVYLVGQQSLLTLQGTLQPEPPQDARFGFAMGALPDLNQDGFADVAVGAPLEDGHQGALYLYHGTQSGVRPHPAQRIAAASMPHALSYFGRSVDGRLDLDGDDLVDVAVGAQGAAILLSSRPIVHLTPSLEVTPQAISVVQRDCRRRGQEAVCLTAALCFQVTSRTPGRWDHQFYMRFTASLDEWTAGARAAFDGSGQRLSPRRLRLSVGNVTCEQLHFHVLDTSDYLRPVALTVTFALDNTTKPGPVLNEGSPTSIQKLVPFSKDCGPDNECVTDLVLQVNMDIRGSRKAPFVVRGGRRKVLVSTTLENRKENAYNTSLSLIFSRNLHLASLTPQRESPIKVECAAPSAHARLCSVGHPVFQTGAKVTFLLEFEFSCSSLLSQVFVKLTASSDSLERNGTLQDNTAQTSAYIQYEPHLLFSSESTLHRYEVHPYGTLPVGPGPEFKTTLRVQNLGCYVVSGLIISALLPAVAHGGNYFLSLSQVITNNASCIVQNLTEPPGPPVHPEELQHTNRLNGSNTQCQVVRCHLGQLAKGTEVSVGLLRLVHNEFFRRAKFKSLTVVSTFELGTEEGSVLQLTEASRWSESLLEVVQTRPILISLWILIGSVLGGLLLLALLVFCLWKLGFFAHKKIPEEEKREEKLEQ

Integrin alpha-1 (Homo sapiens), sequence (P56199 whole entry): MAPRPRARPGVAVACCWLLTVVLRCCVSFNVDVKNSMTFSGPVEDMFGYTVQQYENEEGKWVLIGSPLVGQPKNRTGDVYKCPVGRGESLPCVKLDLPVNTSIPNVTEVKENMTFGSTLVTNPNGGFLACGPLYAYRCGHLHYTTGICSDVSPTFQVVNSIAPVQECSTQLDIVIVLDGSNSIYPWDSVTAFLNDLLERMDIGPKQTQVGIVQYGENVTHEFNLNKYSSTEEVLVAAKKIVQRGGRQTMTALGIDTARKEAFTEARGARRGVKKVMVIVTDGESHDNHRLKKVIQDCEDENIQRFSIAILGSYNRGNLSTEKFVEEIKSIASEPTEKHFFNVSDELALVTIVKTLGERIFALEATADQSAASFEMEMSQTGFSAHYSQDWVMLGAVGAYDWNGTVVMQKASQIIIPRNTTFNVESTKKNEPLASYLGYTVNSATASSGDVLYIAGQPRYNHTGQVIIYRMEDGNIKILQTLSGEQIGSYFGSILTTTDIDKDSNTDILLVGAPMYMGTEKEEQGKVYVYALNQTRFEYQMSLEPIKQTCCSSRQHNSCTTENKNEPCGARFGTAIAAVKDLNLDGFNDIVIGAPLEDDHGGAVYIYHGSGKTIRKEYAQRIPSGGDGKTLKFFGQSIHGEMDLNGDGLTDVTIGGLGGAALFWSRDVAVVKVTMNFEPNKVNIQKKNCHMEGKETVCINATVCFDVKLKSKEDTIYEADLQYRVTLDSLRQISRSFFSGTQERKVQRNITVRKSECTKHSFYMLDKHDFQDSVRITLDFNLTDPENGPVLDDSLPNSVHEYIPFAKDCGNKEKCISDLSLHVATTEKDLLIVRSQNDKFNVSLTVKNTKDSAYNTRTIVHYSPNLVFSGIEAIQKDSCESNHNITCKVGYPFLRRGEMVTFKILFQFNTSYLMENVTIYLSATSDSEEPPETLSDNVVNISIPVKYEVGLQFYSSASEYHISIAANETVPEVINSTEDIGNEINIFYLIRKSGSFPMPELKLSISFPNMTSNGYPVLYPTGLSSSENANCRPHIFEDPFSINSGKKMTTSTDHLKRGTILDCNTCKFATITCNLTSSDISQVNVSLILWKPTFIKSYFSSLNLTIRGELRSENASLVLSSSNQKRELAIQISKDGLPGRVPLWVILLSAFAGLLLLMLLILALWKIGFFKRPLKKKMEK

SMILES	inhibition [4] [%]	inhibition at 10 µM (CHO [5]) [%]	Activity (CHO [6])	Activity (CHO [8])	other results
CCc1cc(O)c2c(O)c3c(cc2c1C(=O)OC)C(=O)c1cccc(O)c1C3=O	–	–	–	–	Activity [1]: Active; Activity [2]: Active; Activity [3]: Active; IC50 (Integrin alpha-2): 50 µM
CCc1cc(NCCO)c2c(O)c3c(c(O)c2c1C(=O)OC)C(=O)c1cccc(O)c1C3=O	0	30	Non-toxic	–	–
CCC1(O)CC(=O)c2c(O)c3c(c(O)c2C1C(=O)OC)C(=O)c1cccc(O)c1C3=O (stereo unspecified) [MAGGIEMYCIN]	65	10	Non-toxic	–	–

Now from value to compound, other results behind:

inhibition [4] [%]	SMILES	inhibition at 10 µM (CHO [5]) [%]	Activity (CHO [6])	Activity (CHO [8])	other results
100	CCc1cc(O)c2c(O)c3c(c(O)c2c1C(=O)OC)C(=O)c1cccc(O)c1C3=O [ANHYDROMAGGIEMYCIN]	35	–	Non-toxic	inhibition (CHO [7]): -3.3%; IC50 [9]: 160 µM; IC50 [10]: 131 µM
90	COC(=O)c1c(C(C)C)cc(O)c2c(O)c3c(c(O)c12)C(=O)c1cccc(O)c1C3=O	40	–	Non-toxic	Activity [11]: Active; Activity [12]: Active
